Reference: article PMC7948422, “Repurposing p97 inhibitors for chemical modulation of the bacterial ClpB–DnaK bichaperone system” (The Journal of Biological Chemistry, 2020)
pIC50: −log10 of the molar value. “Also recorded” adds a separate entry of the source.

Columns and labels:
[1] = target: glucose-6-phosphate dehydrogenase (G6PDH) (Leuconostoc mesenteroides, UniProt P11411); assay: Native G6PDH activity; format: biochemical; details: increasing DBeQ concentration
Procedure: G6PDH was chemically denatured by mixing 5 μl of the G6PDH stock solution (441 μM) with 5 μl of buffer A (10 M urea, 16% glycerol, 40-mM DTT) preheated at 47 °C. The samples of G6PDH in buffer A were incubated for 5 min at 47 °C. Subsequently, 5 μl of denatured G6PDH was mixed with 95 μl of buffer B (50-mM Tris-HCl, pH 7.4, 20-mM Mg(OAc)2, 30-mM KCl, 1-mM EDTA, 1-mM β-mercaptoethanol) preheated at 47 °C to initiate protein refolding, which, under these conditions, is inefficient and leads to misfolding and aggregation of G6PDH ([69]). G6PDH aggregate production was arrested after 1 min (for refolding by KJE) or 15 min (for refolding by KJE with ClpB) by transferring into ice for 2 min. […] The plate was inserted into Synergy H1 plate reader (BioTek, Winooski, VT) with the chamber temperature at 30 °C, and the sample absorbance at 340 nm was measured after 10 min. The amount of NADPH produced was calculated based on the NADPH molar extinction coefficient, Ɛ340 = 6220 [M^−1 ⋅ cm^−1]. […]
conditions. The ATPase activity of wt ClpB was determined at 37 and 45 °C as the function of DBeQ concentration. […]
Supplementary Figure 7. […] (A) Firefly luciferase activity was determined in the absence (DMSO) or in the presence 100 µM ClpB inhibitor candidates. […] (B) G6PDH activity was determined in the presence of an increasing concentration of DBeQ and normalized to the DMSO control. […]

[2] = test system: E. coli MC4100ΔclpB; assay: Bacterial growth and viability, MC4100ΔclpB; format: cell-based, Escherichia coli; details: 37 °C
Procedure: E. coli MC4100, MC4100ΔclpB, dnaK103, and dnaK756 strains were used to determine an influence of DBeQ on bacterial growth and viability. Bacteria were maintained in the LB media, and in the case of the MC4100ΔclpB strain, LB was supplemented with 30 μg/ml kanamycin. All experiments were initiated by preparing overnight cultures inoculated from single colonies and grown at 37 °C. The dnaK103 and dnaK756 overnight cultures were grown at 30 °C. On the following day, the cultures were diluted 100-fold in 10 ml of LB without antibiotics and incubated at 37 °C. The culture optical density was monitored at 600 nm. When absorbance at 600 nm reached 0.4, the culture was divided into 1-ml aliquots and supplemented with 10 μl of DMSO or different concentrations of DBeQ in DMSO. The samples were immediately transferred into an incubator/shaker at temperature 37, 45, or 50 °C. Bacteria were cultured for up to 4 h with shaking (200 RPM). At specific time points, 100 μl of each culture was withdrawn and serially diluted in sterile 0.9% NaCl up to 10^6-fold dilution. To estimate the number of viable cells, 5 μl or 10 μl of the diluted cultures was spread on the LB-agar plate without an antibiotic. […] On the following day, the bacterial colonies were counted and the colony-forming units/ml were calculated.

[3] = test system: p97; set-up: method as in PMID 25685910; details: cited from earlier work

Sequence of glucose-6-phosphate dehydrogenase (G6PDH) (P11411 whole entry): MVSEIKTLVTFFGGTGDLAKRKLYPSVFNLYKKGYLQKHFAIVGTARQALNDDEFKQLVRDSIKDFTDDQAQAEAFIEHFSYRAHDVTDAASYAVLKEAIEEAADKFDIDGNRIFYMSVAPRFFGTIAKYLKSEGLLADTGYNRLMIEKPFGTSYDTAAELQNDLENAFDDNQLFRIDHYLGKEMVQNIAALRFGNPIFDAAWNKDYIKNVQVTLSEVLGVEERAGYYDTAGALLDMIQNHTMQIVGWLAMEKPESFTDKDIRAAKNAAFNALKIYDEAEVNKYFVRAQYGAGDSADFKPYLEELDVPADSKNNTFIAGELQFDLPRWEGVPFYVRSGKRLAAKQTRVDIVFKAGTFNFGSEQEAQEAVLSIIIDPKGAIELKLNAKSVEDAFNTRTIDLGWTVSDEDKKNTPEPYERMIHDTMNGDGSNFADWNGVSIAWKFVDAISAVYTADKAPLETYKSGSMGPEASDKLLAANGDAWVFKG

c1ccc(CNc2nc(NCc3ccccc3)c3ccccc3n2)cc1 [DBeQ, N^2,N^4-dibenzylquinazoline-2,4-diamine]
effect on native G6PDH activity [1]: not affected | effect on growth of ΔclpB strain [2]: nearly eliminated; also recorded: effects were eliminated | pIC50 [3]: ~5.52
